Values belong to the compound of their own block, whether it stands above or below them. Where a SMILES comes first, the peptide text is derived from it. [ ]: non-standard residue; d: D form. Phe(4-CF3) = N[C@@H](Cc1ccc(C(F)(F)F)cc1)C(=O)O; Phe(4-Br) = N[C@@H](Cc1ccc(Br)cc1)C(=O)O; Nle = CCCC[C@H](N)C(=O)O
What was measured:
HIF-1α PAS-B domain = HIF-1α PAS-B domain (Homo sapiens, UniProt Q16665); test: Microscale thermophoresis (MST) binding to HIF-1α PAS-B domain; details: for binding affinity by MST, in words: compared within the derivative series or to the unsubstituted peptide
HIF-1α PAS-B domain, sequence (Q16665 238-349 limits assumed): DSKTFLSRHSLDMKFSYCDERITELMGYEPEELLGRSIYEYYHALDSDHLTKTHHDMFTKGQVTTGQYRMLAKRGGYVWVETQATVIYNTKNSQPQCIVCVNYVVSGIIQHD
Procedure: The impact of these substitutions on the binding affinity was then assessed by MST.
An aliquot of labelled HIF-1α PAS-B was thawed on ice and diluted to 50 nM with HIF MST assay buffer, before being centrifuged at 12,000 rpm for 15 minutes. […] Samples were loaded into NanoTemper® Monolith NT.115 premium treated capillaries and measurements were carried out using a Monolith NT.115 system at 25° C. using 50% MST power and 50% LED power. Data was analysed by NanoTemper® analysis software. Binding curves were fitted using GraphPad Prism 8 software.

[1] = biological target: T1, His-HIF-1α PAS-B domain with FLAG-HIF-1β PAS-B domain (Homo sapiens, UniProt Q16665); test: ELISA of HIF-1α PAS-B / HIF-1β PAS-B heterodimerization; type: biochemical; details: read-out: IC50 of disruption of HIF-1α-HIF-1β PAS-B-PAS-B dimer formation
T1 construct: heterodimerization of His-HIF-1α PAS-B domain with FLAG-HIF-1β PAS-B domain analysed by ELISA
T1 sequence (Q16665 238-349 limits assumed): as above
Procedure: FIG. 9‥Effects of (CONC) CK-n-leu-F(CF3)IF(Br) [SEQ ID NO: 40 Cys lys NL phe(CF3) ile phe(Br)] on the heterodimerization of His-HIF-1α PAS-B domain with FLAG-HIF-1β PAS-B domain analysed by ELISA.
The ability of CK-n-leu-F(CF3)IF(Br) to disrupt the HIF-1α-HIF-1β PAS-B-PAS-B PPI was then assessed via an ELISA assay.
To each well of a clear Pierce nickel coated 96-well plate (Thermo Scientific), purified Hiss-HIF-1α PAS-B protein in HIP buffer was added (25 μL, 0.1 μM), the plate was then incubated for 1 hr at RT with rocking. The wells were then washed 2× with HIF buffer (150 μL) and 1× with PBS Tween (0.05% Tween 20, 150 μL). 2% milk in PBS Tween (150 μL) was then added to each well and incubated for 1 hr at RT with rocking as a blocking step. The wells were then washed 2×PBS Tween (150 μL) and 1× with HIF buffer (150 μL). For HIF-B dimerisation a serial dilution of HIF-1β PAS-B ranging from 250 μM to 11 nM in HIF buffer (100 μL) was then added. […] The plate was then incubated at RT for 1 hr with rocking. The wells were then washed 2× with HIF buffer (150 μL) and 1× with PBS Tween (150 μL), A 1:1000 dilution of mouse anti-flag antibody in 2% milk PBS Tween (50 μL) was then added to each well and the plate incubated for a further hour at RT with rocking. […] H2SO4(aq) (2 M, 100 μL) was then added to each well and the absorbance at 450 nm determined on a BMG Clariostar plate reader.

[2] = system: HIF-1 three-domain protein binding to FAM-HRE; test: Fluorescence polarization assay of HIF-1 binding to FAM-HRE; type: biochemical; details: for IC50: FP assay, read-out: IC50 of inhibition of HIF DNA (FAM-HRE) binding
Procedure: (§1) HIF-1 three-domain protein was thawed on ice and diluted to 150 nM in HIF FP buffer. Compounds for analysis were serially diluted in DMSO to give 10× stocks. The compounds (10 μL, 100% DMSO) were then added to the protein (80 μL). The samples were then incubated at room temperature for 30 minutes. FAM-HRE (10 μL, 20 nM) was then added and the samples loaded into a 384 well solid black non-binding microplate (Corning, USA). The fluorescence polarization of each well was then measured using gain and focus settings optimized by the used software set to a signal of 400 mP on a control well.
An FP assay utilizing a FAM labelled HRE was used and CK-NL-F(CF3)IF(Br) assessed.
as §1, with “compounds (10 μl, 100% DMSO)” for “compounds (10 μL, 100% DMSO)”

[3] = system: HIF-1a driven transcription in Panc HRE readout cell line; test: Panc HRE readout cell line (EYFP expression); type: cell-based
[4] = Cytotox-Glo toxicity assay; type: cell-based; details: doses 50 uM
[5] = system: HIF-1a driven transcription in U2OS HRE readout cell line; test: U2OS HRE readout assay (EYFP expression); type: cell-based
HeLa cells = test: Cell internalization of the fluorescent peptide, PMT detection at 405 nm; type: cell-based
From the text: (§2) FIG. 11—A) Structure of cyclic peptide that incorporates a coumaryl motif at the phenylalanine position CLL-Cou-VY [SEQ ID NO: 39 Cys leu leu cou val tyr]. B) MST analysis of CLL-Cou-VY. C) The peptide was seen to be internalized in HeLa cells upon visualization with PMT detection at 405 nm. […] E) HIF-1α immunofluorescence under control conditions showing that without treatment HIF-1a localizes to the nucleus.
We therefore made a peptide with a coumaryl motif incorporated at the phenylalanine position the compound, CLL-Cou-VY, shown in FIG. 11 was seen to be internalized in HeLa cells upon visualization with PMT detection at 405 nm.

[6] = system: HIF-1α nuclear localization; test: HIF-1α immunofluorescence (nuclear localization); type: cell-based
From the text: as §2

[7] = biological target: T2, HIF-1α PAS-B domain mutant C255A (Homo sapiens, UniProt Q16665, C255A); test: MST binding to cysteine mutant HIF-1α PAS-B C255A; details: site-directed mutagenesis
T2 construct: made in house
T2 sequence (Q16665 238-349 C255A limits assumed): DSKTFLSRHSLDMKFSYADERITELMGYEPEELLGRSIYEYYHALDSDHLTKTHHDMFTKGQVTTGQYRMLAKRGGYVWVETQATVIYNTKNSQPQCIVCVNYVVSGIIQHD
Procedure: (§3) One rationalization would be that the peptide binding is disulphide-mediated. Whilst this was thought to be unlikely as all assays were performed in the presence of the reducing agent TCEP, it was decided that the possibility would be further investigated via site-directed mutagenesis (SDM). The three cysteine residues within the HIF-1α PAS-B domain were sequentially mutated to alanine. The affinity of cyclo-CLLFVY for the resultant mutant proteins C255A, C344A and C337A was then assessed by MST.
(§4) An aliquot of labelled HIF-1α PAS-B was thawed on ice and diluted to 50 nM with HIF MST assay buffer, before being centrifuged at 12,000 rpm for 15 minutes. The compound was then serially diluted in DMSO to give 10× stocks. These were then diluted 1:5 in HIF MST assay buffer to give 2× stocks, before finally being mixed 1:1 (v/v) with the labelled protein to give a final concertation of 25 nM protein and a final DMSO content of 10%. Samples were loaded into NanoTemper® Monolith NT.115 premium treated capillaries and measurements were carried out using a Monolith NT.115 system at 25° C. using 50% MST power and 50% LED power. Data was analysed by NanoTemper® analysis software. Binding curves were fitted using GraphPad Prism 8 software.

[8] = system: HIF-1α PAS-B domain mutant C344A; test: MST binding to cysteine mutant HIF-1α PAS-B C344A; details: site-directed mutagenesis
Procedure: as §3, §4

[9] = biological target: T3, HIF-1α PAS-B domain mutant C337A (Homo sapiens, UniProt Q16665, C337A); test: MST binding to cysteine mutant HIF-1α PAS-B C337A; details: site-directed mutagenesis
T3 construct: made in house
T3 sequence (Q16665 238-349 C337A limits assumed): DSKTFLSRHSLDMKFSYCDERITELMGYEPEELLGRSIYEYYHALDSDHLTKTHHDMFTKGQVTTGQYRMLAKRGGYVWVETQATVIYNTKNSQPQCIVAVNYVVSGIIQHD
Procedure: as §3, §4

Kd (HIF-1α PAS-B domain; MST, HIF-1α PAS-B domain): 1.66 ± 0.3 µM | IC50 [1]: 27.7 ± 14 µM | compatibility with FP assay / direct binding to FAM-HRE ([2]; peptide itself with FAM labelled HRE): bind to the FAM-HRE directly
Compound: CCCC[C@@H]1NC(=O)[C@H](CCCCN)NC(=O)[C@H](CS)NC(=O)[C@H](Cc2ccc(Br)cc2)NC(=O)[C@H]([C@@H](C)CC)NC(=O)[C@H](Cc2ccc(C(F)(F)F)cc2)NC1=O [CK-n-leu-F(CF3)IF(Br), Cys lys n-leu phe(CF3) ile phe(4-Br)] (cyclo(CK[Nle][Phe(4-CF3)]I[Phe(4-Br)]))
expression of EYFP [3]: inhibited the expression of EYFP | toxicity [4]: not toxic

Compound: CCCC[C@@H]1NC(=O)[C@H](CC(C)C)NC(=O)[C@H](CS)NC(=O)[C@H](Cc2ccc(Br)cc2)NC(=O)[C@H]([C@@H](C)CC)NC(=O)[C@H](Cc2ccc(O)cc2)NC1=O [CL-n-leu-F(CF3)IF(Br), Cys leu n-leu phe(CF3) ile phe(4-Br)] (cyclo(CL[Nle]YI[Phe(4-Br)]))
expression of EYFP [5]: inhibited the expression of EYFP

Compound: CC(C)C[C@@H]1NC(=O)[C@H](CS)NC(=O)[C@H](Cc2ccc(O)cc2)NC(=O)[C@H](C(C)C)NC(=O)[C@H](CCc2cc(=O)oc3cc(O)ccc23)NC(=O)[C@H](CC(C)C)NC1=O [CLL-Cou-VY, Cys Leu Leu Cou Val Tyr]
internalization in cells (HeLa cells): internalized | effect on HIF-1α nuclear localization [6]: preventing HIF-1α nuclear localization

binding affinity by MST, in words (HIF-1α PAS-B domain): best affinity | IC50 [2]: 11.8 ± 1.1 µM
Compound: CC(C)C[C@@H]1NC(=O)[C@H](CS)NC(=O)[C@H](Cc2ccc(Br)cc2)NC(=O)[C@H](C(C)C)NC(=O)[C@H](Cc2ccc(C(F)(F)F)cc2)NC(=O)[C@H](CC(C)C)NC1=O [CLLF(CF3)IF(Br), Cys leu leu phe(CF3) ile phe(4-Br)]

IC50 [2]: 76.5 ± 8 µM
Compound: CC(C)C[C@@H]1NC(=O)[C@H](CS)NC(=O)[C@H](Cc2ccc(O)cc2)NC(=O)[C@H](C(C)C)NC(=O)[C@H](Cc2ccccc2)NC(=O)[C@H](CC(C)C)NC1=O [CLLFVY, Cys leu leu phe val tyr]
binding activity for mutant protein C255A [7]: binding activity is retained | binding activity for mutant protein C344A [8]: binding activity is retained | binding activity for mutant protein C337A [9]: binding activity is retained

binding affinity by MST, in words (HIF-1α PAS-B domain): comparable affinities
Compound: CC(C)C[C@@H]1NC(=O)[C@H](CC(C)C)NC(=O)[C@@H](CS)NC(=O)[C@H](Cc2ccc(O)cc2)NC(=O)[C@H](C(C)C)NC(=O)[C@H](Cc2ccccc2)NC1=O [D-cysteine, d-cys leu leu phe val tyr]

fold improvement in affinity compared to the parent peptide CLLFVY (HIF-1α PAS-B domain; MST Kd relative to CLLFVY): 6 fold
Compound: CC(C)C[C@@H]1NC(=O)[C@H](CS)NC(=O)[C@H](Cc2ccc(O)cc2)NC(=O)[C@H](C(C)C)NC(=O)[C@H](Cc2ccc3ccccc3c2)NC(=O)[C@H](CC(C)C)NC1=O [Nal, Cys leu leu Nal val tyr]

binding affinity by MST, in words (HIF-1α PAS-B domain): comparable affinities
Compound: NC(CCS)C(=O)O (centres unmarked) [homocysteine, h-cys leu leu phe val tyr]

Reference: patent US20260062447A1, “COMPOUNDS” (UNIVERSITY OF SOUTHAMPTON, priority 2022, published 2026)
